# Biological target: T1, Gag-Pol polyprotein [588-1027]/[588-1147] (Human immunodeficiency virus 1, UniProt P04585)
# T1 construct: 588-1027; 588-1147
# Test: HIV-1 RT Assay
# Conditions: pH 7.8; 37 °C
smiles,measurement,value
"CCC(C)Sc1nc(O)cc(Cc2c(Cl)cccc2Cl)n1 (stereo unspecified) [2-(butan-2-ylsulfanyl)-6-[(2,6-dichlorophenyl)methyl]-3,4-dihydropyrimidin-4-one]",IC50,100 nM

# From BindingDB's records for doi:10.1021/jm980260f (Sapienza University of Rome, 1999)
